Experimental data: PubChem BioAssay AID179 (DTP/NCI, 2004)
Calls of active or inactive are those of the source.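 The calls were made as follows: active = compounds giving half or more protection of infected cells from virus-caused growth loss, again on retest; inactive = the rest.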

Tested on: CEM cells HIV-1 protection, formazan growth assay
Assay: NCI AIDS Antiviral Assay
Details: for IC50: measured here: growth of uninfected CEM cells
Procedure, shortened: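 Human CEM cells, uninfected and HIV-1-infected, exposed to five drug concentrations; growth measured by soluble formazan assay and scored as percent protection from infection, with protecting compounds retested.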

Compound | EC50 | IC50 | outcome
N#CC1=C(S)N(C2OC(CO)C(O)C(O)C2O)C(c2ccccc2)=CC1c1ccccc1 (centres undefined) | > 200 µM | 51.3 µM | 
Clc1ccccc1C1N2CCCCC2[C@@H]2c3[nH]c4ccccc4c3CCN12 (some centres undefined) | > 50.1 µM | > 50.1 µM | 
O=c1c(-c2ccccc2)coc2cc(O)ccc12 | > 200 µM | 52.5 µM | 
COC(=O)c1cc(Cc2cc(Br)cc(C(=O)OC)c2O)cc(Cl)c1O | > 100 µM | > 100 µM | 
O=C1/C(=C/c2cccc(Br)c2)CCc2ccccc21 | > 200 µM | 7.24 µM | 
COc1cc(Cc2c(OC)c(OC)cc(C)c2C(=O)O)cc(OC)c1 | > 145 µM | > 145 µM | 
Cc1noc(NS(=O)(=O)c2ccc(NC(=O)c3ccccc3SC(=O)CCCC[n+]3ccccc3)cc2)c1C | 24 µM | 53.7 µM | 
O=c1ccc(=Nc2ccc(NNc3ccccc3)cc2)c2c(=O)c3c([N+](=O)[O-])ccc(O)c3c(=O)c1=2 | > 100 µM | 17.8 µM | 
COc1cccc(SSc2cccc(OC)c2OC)c1OC | > 200 µM | 16.6 µM | 
O=C1/C(=C/c2ccccc2Cl)CCc2ccccc21 | > 10 µM | > 10 µM | 
CCOC(=O)c1[nH]c2ccccc2c1C(=O)C[C@H](NC(=O)C(F)(F)F)C(=O)OC | > 200 µM | > 200 µM | 
CN(C)/C=N\c1nncc2[nH]cnc12 | > 200 µM | 15.1 µM | 
CSc1ccc(OCC2OC2O)cc1 (centres undefined) | > 24.5 µM | > 24.5 µM | 
C/C=C/C(C1=C(O)c2ccccc2C(=O)C1=O)C1=C(O)c2ccccc2C(=O)C1=O | > 200 µM | 83.2 µM | 
COc1ccc(-c2cc(=O)c3c(O)cc(O)cc3o2)cc1OC | > 70.8 µM | > 70.8 µM | 
CCOC(=O)C1=C(c2ccccc2)NC(c2ccccc2)=C(C(=O)OCC)c2c1c(=O)cc[nH]c2=O | > 53.7 µM | > 53.7 µM | 
CCCCOC(=O)/C=C(\Br)C(=O)OCCCC |  |  | inactive
CN(C)c1ccc(Cc2cc(C(C)(C)C)cc(C(C)(C)C)c2O)cc1 |  |  | inactive
CCOC(=O)c1[nH]c(Br)c(-c2ccc(OC)c(OC)c2)c1Br | > 200 µM | 0.0631 µM | 
COc1cc2c(c(OC)c1OC)C(=O)[C@H]1OC(=O)N[C@@H]21 | > 200 µM | > 200 µM | 
Cn1cnc2[nH]c(=O)n(OS(=O)(=O)c3ccccc3)c(=O)c21 | > 195 µM | 151 µM | 
CN(Cc1ccccc1)C(=NC#N)N(Cc1ccccc1)Cc1ccccc1 | > 19.5 µM | > 19.5 µM | 

Compound | EC50 | IC50 | outcome
NC1=NN(c2ccccc2)C(=O)C1/C(=N\NC(=O)c1cc2ccccc2cc1O)C(=O)Nc1ccc(Cl)cc1 (centres undefined) | > 6.92 µM | > 6.92 µM | 
CC1(C)c2ccccc2C(=O)C12CCC(=O)CC2 | > 200 µM | > 200 µM | 
COc1ccc2c(c1)-c1c(c3cc(OC)ccc3n1CCN1CCOCC1)CC2 |  |  | inactive
CN=c1ssc(/N=C(\SC)N(C)C)[n+]1C |  |  | inactive
COc1ccc(C(O)C2c3c(cc4c(c3OC)OCO4)CCN2C)c(CO)c1OC (centres undefined) |  |  | inactive
N#Cc1cc2c(n(NS(=O)(=O)c3ccccc3)c1=O)CCCC2 | > 200 µM | > 200 µM | 
O=C(O)C1OC12CCCCC2 (centres undefined) | > 200 µM | > 200 µM | 
CCOC(=O)c1ccc(C(=O)/C(C(=O)OC(C)(C)C)=C2\CCCN2C)n1C | 89.1 µM | 141 µM | 
O=c1c2ccccc2[se]n1-c1ccccc1 | 1.62 µM | 17.8 µM | 
O=C1CCCN1CC#CCN1C[C@@H]2C3CCC(C3)[C@@H]2C1 | > 200 µM | 170 µM | 
COc1ccc(C(=O)N=C2N(c3ccccc3)C(=Nc3ccccc3)C(=Nc3ccccc3)N2c2ccccc2)cc1 | > 200 µM | 8.32 µM | 
CCC(C)C(=O)c1c(O)c(C/C=C(\C)CCC=C(C)C)c(O)c2c(C(O)CC)cc(=O)oc12 (centres undefined) | > 200 µM | 1.55 µM | 
CCCCCCC(C)CCCCCCCCCCC(=O)OCC(COP(=O)([O-])OCC[N+](C)(C)C)OC(=O)CCCCCCCCCCC(C)CCCCCC (centres undefined) |  |  | inactive
O=[N+]([O-])c1ccc2nc3ccc([N+](=O)[O-])cn3c2c1 | > 200 µM | > 200 µM | 
COc1ccc(NCC(=O)Nn2c(-c3ccccc3)nc3ccccc3c2=O)cc1 | > 200 µM | 17.8 µM | 
C1CCCCC2(CCCCCCCCC3(CCC1)OCCO3)OCCO2 | > 200 µM | > 200 µM | 
Cc1cc(C)c(-n2[nH]c(=O)n(C)c2=O)c(C)c1 | > 200 µM | > 200 µM | 
O=C(CCCC[n+]1ccccc1)Sc1ccccc1C(=O)NCc1ccc2c(c1)OCO2 | > 200 µM | 3.02 µM | 
CC1(C)CCc2cc3c(cc2O1)OC(C)(C)C1c2c(ccc4c2CCC(C)(C)O4)OC31 (centres undefined) |  |  | inactive
COC(=O)C1(Cc2ccc3c(c2)CCC3)Cc2ccccc2C1O (centres undefined) | > 200 µM | 26.9 µM | 
O=C1[C@H]2ON(c3ccccc3)C(c3ccc(Cl)cc3)[C@H]2C(=O)N1c1ccc(Cc2ccc(N3C(=O)[C@@H]4ON(c5ccccc5)C(c5ccc(Cl)cc5)[C@@H]4C3=O)cc2)cc1 (some centres undefined) | > 6.31 µM | > 6.31 µM | 
CC1OC(n2cc(I)c(=O)[nH]c2=O)C=CC1=O (centres undefined) | > 347 µM | 2.14 µM | 

Compound | EC50 | IC50 | outcome
O=C(NNc1nc(Cl)nc(Cl)n1)c1ccccc1 | > 200 µM | > 200 µM | 
CC(=O)C(=Cc1ccc(C=C(C(C)=O)C(C)=O)cc1)C(C)=O | > 200 µM | 0.933 µM | 
CCC(/C(=N\Nc1c(Cl)cc(Cl)cc1Cl)c1ccccc1)n1ccnc1C (centres undefined) |  |  | inactive
CC(C)(Cc1ccccc1)C(=C=C=C=C(c1ccccc1)C(C)(C)Cc1ccccc1)c1ccccc1 | > 46.8 µM | > 46.8 µM | 
CC(=O)OCC(OC(C)=O)C(Cl)CCl (centres undefined) | > 200 µM | > 200 µM | 
CC(=O)OCCn1c(Cc2ccc([N+](=O)[O-])cc2)nn(C(C)=O)c1=O | > 200 µM | > 200 µM | 
N#CC12CC(C=O)=C(N)C1(C#N)CC(C=O)=C2N (centres undefined) | > 200 µM | 14.8 µM | 
O=C1c2cc(Cl)ccc2-n2c(noc2=O)C2CSCN12 (centres undefined) | > 200 µM | > 200 µM | 
CCOC(=O)OC1(c2ccccc2)CCN(C)CC1 | > 200 µM | > 200 µM | 
CN1CCC[C@H]1C(=O)c1oc(CO)cc(=O)c1O |  |  | inactive
CCOP(=O)(OCC)OC1CC(n2cnc3c(N(CC)CC)ncnc32)OC1CO[Si](C)(C)C(C)(C)C (centres undefined) | > 200 µM | 31.6 µM | 
N#Cc1cc([N+](=O)[O-])ccc1NC(=O)C(=O)Nn1c(=S)[nH]c2ccccc2c1=O |  |  | inactive
c1ccc2c(c1)nc1n2CC2(CS1)CSc1nc3ccccc3n1C2 |  |  | inactive
CC(C)(NC(=O)c1ccccc1SC(=O)CCCC[n+]1ccccc1)C(N)=O | 1 µM | 50.1 µM | 
COc1ccc(CN=CN/C(C#N)=C(\N)C#N)cc1OC | > 200 µM | > 200 µM | 
CC(C)(C)OC(=O)NC(Cc1ccc(OCc2ccccc2)cn1)C(=O)O (centres undefined) | > 200 µM | > 200 µM | 
CC1(C)NC(=O)[C@]2(C[C@@H](OC(=O)c3ccccc3)C=C2C=O)O1 | > 200 µM | 2.45 µM | 
CN(C)C1=CC(=O)C(=O)c2ccncc21 |  |  | inactive
O=C(Nc1ccccc1)c1cc2cc(O)c(O)cc2cn1 | > 158 µM | 7.41 µM | 
O=C(N=C1C(=O)C2(CCCCC2)C2(N=C(c3ccccc3)OC2=O)C12CCCCC2)c1ccccc1 (centres undefined) | > 27.5 µM | 10 µM | 
Cc1c(N(C)C)ccc2c(=O)c3cccc(CC(=O)O)c3oc12 | > 741 µM | 282 µM | 
CC(C)CCCC(C)[C@H]1CC[C@H]2[C@@H]3CC[C@H]4C[C@@H](CCC=C(c5cc(Cl)c(OC(=O)C(C)C)c(C(=O)O)c5)c5cc(Cl)c(OC(=O)C(C)C)c(C(=O)O)c5)CC[C@]4(C)[C@H]3CC[C@]12C (some centres undefined) | 105 µM | 126 µM | 

Compound | EC50 | IC50 | outcome
CN(CC(=O)O)S(=O)(=O)c1ccc(F)cc1 |  |  | inactive
CCOC(=O)/C=C(/c1cc(C)[nH]c1C)N(CC)CC | > 200 µM | > 200 µM | 
N#CC(C#N)=C(N)/C(C#N)=C/c1ccc(O)c(O)c1 | > 200 µM | 61.7 µM | 
COc1cccc(C=C2N=C(C)N(n3c(-c4ccccc4)nc4ccccc4c3=O)C2=O)c1 | > 200 µM | 72.4 µM | 
O=C1CC2CCC(C1)N2CC1COc2ccccc2O1 (centres undefined) | > 200 µM | > 200 µM | 
Oc1c(CN2CCOCC2)cc(N=Nc2ccccc2)c(O)c1CN1CCOCC1 | > 100 µM | > 100 µM | 
CCOC(CN(C)C(=O)Nc1cccc2ccccc12)OCC | > 200 µM | 178 µM | 
CC(C)(C)C1(O)Cc2ccccc2C(=O)O1 (centres undefined) | > 309 µM | > 309 µM | 
COc1c2cc(C(C)(C)C)cc1CSCc1cc(C(C)(C)C)cc(c1OC)CCCCC2 | > 200 µM | > 200 µM | 
CCOC(=O)c1c(-c2ccccc2)c(C(OC(c2ccccc2)c2c(-c3ccccc3)c(C(=O)OCC)n3ccccc23)c2ccccc2)c2ccccn12 (centres undefined) | > 5.25 µM | > 5.25 µM | 
COc1cc(/C=C(\C#N)c2ccccn2)cc(Br)c1O | > 200 µM | 28.2 µM | 
CSC(SC)=C(C#N)C(N)=S | > 200 µM | 123 µM | 
COc1cc2c(cc1OC)C(=O)Cc1ccc(OC)c(OC)c1CN(C)CC2 | > 67.6 µM | > 67.6 µM | 
CCOC(=O)C(=O)/C(=C/N1C(=O)CC(=O)NC1=S)C(=O)OCC | > 200 µM | > 200 µM | 
O=C(Cc1ccccc1)NN1C(=O)/C(=C\c2cccc([N+](=O)[O-])c2)SC1=Nc1ccccc1 | > 56.2 µM | > 56.2 µM | 
COc1ccc(C(c2ccccc2)(c2ccc(OC)cc2)N2C(=O)NC3C(CCCCC(=O)NCCCCCCOP(OCCC#N)N(C(C)C)C(C)C)SCC32)cc1 (centres undefined) | > 4.47 µM | > 4.47 µM | 
Cc1ccc2cc(NC(=O)CBr)c3ccc(C)nc3c2n1.Cc1ccc2cc(NC(=O)CBr)c3ccc(C)nc3c2n1.O=C1OC(C(O)C[O-])C(O)=C1O.[Cu+] | > 12.6 µM | 3.02 µM | 
CS(=O)(=O)OCCCCOS(C)(=O)=O | > 204 µM | > 204 µM | 
CC(=O)NNC(=O)c1ccccc1O | > 200 µM | 29.5 µM | 
O=C1C2=C(/C=C/c3ccccc3)OCCC2=NN1c1ccccc1 | > 42.7 µM | 7.59 µM | 
